The source of these data is patent US8071776B2, “Thienopyridines as allosteric potentiators of the M4 muscarinic receptor” (Eli Lilly and Company, priority 2004, dated 2011).

Several values for one entry are separate records, joined by “and”; a condition that tells them apart may be missing. Identical values can stand only once.

The target in one assay is T1, hM4 receptors (Homo sapiens, UniProt P08173).
T1 construct: expressed in transfected cells
T1 sequence (P08173 1-479): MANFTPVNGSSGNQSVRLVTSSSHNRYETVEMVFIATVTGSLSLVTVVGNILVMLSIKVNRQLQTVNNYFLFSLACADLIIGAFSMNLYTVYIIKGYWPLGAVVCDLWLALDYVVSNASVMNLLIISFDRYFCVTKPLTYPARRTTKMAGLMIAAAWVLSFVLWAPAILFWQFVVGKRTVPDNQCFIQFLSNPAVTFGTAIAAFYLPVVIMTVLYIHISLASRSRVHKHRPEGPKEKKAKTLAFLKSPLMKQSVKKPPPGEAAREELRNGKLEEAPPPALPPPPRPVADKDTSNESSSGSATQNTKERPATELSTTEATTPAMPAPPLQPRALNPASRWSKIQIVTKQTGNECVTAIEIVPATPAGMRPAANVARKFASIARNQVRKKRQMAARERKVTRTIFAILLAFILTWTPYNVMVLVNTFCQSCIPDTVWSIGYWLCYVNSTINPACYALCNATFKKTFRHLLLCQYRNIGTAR
Nature of the assay: Calcium mobilization (FLIPR), ACh concentration-response curves, AV12 Gα15 hM4 cells. The class given is cell-based. How it is done: (§1) Automated multiple compound additions are timed by computer program. Cells are pre-incubated with increasing concentration of compounds.
Background: Calcium assays in cells follow changes in intracellular calcium, usually with a dye or a luminescent sensor.

The target of the next assay is T2, hM1 receptors (Homo sapiens, UniProt P11229).
T2 construct: expressed in transfected cells
T2 sequence (P11229 1-460): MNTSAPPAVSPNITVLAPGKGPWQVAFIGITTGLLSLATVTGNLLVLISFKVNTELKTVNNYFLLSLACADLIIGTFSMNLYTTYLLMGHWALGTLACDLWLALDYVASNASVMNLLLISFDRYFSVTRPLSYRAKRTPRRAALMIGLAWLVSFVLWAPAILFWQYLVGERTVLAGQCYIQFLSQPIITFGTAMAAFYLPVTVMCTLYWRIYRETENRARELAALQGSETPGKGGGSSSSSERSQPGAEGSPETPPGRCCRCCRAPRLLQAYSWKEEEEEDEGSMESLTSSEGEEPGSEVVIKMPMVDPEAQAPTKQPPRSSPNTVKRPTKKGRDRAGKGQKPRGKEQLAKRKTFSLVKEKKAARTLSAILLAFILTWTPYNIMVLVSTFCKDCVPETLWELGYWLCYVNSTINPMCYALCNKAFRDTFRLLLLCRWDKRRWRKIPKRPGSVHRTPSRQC
The assay can be described thus: Calcium mobilization (FLIPR), ACh concentration-response curves, CHO hM1 cells. The class given is cell-based. To be noted: CHO cells stably expressing hM1. The procedure:
as §1

A further assay deals with T3, hM3 receptors (Homo sapiens, UniProt P20309).
T3 construct: expressed in transfected cells
Nature of the assay: Calcium mobilization (FLIPR), ACh concentration-response curves, CHO hM3 cells. The class given is cell-based. To be noted: CHO cells stably expressing hM3. How it is done: as §1

Another assay addresses T4, hM5 receptors (Homo sapiens, UniProt P08912).
T4 construct: expressed in transfected cells
T4 sequence (P08912 1-532): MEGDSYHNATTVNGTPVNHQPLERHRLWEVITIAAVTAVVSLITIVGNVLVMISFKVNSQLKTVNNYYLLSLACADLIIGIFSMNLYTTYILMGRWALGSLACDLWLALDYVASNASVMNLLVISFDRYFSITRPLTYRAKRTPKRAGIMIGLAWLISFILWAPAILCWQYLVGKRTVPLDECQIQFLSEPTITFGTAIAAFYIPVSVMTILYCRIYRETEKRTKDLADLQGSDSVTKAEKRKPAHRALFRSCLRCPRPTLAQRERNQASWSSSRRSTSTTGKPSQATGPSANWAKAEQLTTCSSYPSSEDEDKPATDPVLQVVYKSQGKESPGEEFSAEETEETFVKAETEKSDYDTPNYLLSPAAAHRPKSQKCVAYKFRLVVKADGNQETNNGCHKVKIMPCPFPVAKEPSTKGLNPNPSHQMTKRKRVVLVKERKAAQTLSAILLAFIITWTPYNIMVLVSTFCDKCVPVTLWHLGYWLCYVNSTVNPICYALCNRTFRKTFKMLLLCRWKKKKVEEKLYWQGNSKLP
Nature of the assay: Calcium mobilization (FLIPR), ACh concentration-response curves, CHO hM5 cells. It counts as cell-based. As to conditions: CHO cells stably expressing hM5. The procedure: as §1

A further assay has as its target hM2 receptors (Homo sapiens, UniProt P08172). To be noted: AV12 Gα15 hM2; too modest to be accurately estimated.
In another assay the test system is Male Fisher-344 rats. Nature of the assay: Conditioned avoidance response. The class given is in vivo, rat. The text has this:
The apparatus is a Coulbourn Instruments shuttle operant chamber. Each session equals a total of 50 trials, presented on a 30 second inter-trial interval, and each trial begins with simultaneous illumination of a houselight and rising of a guillotine door. The rat is given 10 seconds to cross over to the other side (an avoidance response) before a 1 mA footshock is initiated. The shock remains on until the rat crosses over to the other side (an escape response) or 10 seconds has elapsed (an escape failure). […] The number of avoidance, escape and escape failure responses during each session is recorded and used for analysis.
Each test compound is administered orally 2 hours prior to testing. Oxo (0.03 mg/kg) is administered subcutaneously 30 minutes prior to testing. Data are analyzed via a one-way (within-group design) Analysis of Variance (ANOVA). In cases of a significant ANOVA (p<0.05), post-hoc comparisons may be made in which compound doses are compared back to the Oxo alone group (paired t-test).

Chain of hM2 receptors (P08172 whole entry): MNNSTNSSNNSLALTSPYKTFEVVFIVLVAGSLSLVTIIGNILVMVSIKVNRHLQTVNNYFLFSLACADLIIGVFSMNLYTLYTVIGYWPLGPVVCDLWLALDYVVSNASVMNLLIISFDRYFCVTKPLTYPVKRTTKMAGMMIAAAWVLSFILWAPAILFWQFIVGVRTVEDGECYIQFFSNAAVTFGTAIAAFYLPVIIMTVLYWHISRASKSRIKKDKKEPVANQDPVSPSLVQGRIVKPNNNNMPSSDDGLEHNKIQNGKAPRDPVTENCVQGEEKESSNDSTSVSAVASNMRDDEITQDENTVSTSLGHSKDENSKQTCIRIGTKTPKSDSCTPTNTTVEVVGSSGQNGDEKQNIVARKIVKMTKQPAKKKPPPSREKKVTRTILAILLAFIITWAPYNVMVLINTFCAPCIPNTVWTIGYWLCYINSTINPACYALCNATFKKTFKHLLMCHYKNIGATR
T3 sequence (P20309 whole entry): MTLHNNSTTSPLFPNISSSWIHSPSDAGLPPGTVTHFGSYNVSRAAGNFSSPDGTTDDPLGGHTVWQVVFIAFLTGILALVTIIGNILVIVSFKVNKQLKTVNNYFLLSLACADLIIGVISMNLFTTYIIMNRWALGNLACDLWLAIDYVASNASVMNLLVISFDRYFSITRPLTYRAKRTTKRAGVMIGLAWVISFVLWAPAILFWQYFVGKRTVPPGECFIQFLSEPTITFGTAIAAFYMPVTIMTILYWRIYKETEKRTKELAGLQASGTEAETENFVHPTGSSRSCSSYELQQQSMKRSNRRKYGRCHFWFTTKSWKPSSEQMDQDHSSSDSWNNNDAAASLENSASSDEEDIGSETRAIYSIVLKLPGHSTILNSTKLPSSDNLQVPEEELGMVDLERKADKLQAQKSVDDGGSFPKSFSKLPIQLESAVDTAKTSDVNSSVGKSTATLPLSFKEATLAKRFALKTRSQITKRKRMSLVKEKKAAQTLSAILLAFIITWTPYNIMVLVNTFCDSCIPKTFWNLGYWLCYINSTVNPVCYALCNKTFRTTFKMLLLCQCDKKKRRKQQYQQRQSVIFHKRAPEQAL
Method for hM2 receptors: Using a calcium-sensitive fluorescent dye, agonist or potentiation activity of a given compound can be detected in a single assay using a Fluorescence Light Imaging Plate Reader (FLIPR) instrument. Cells are plated in Poly-D-Lysine coated black plates/clear bottom (Becton Dickinsons) at 40,000 cells per ml (100 μl/well) in growth media 24 hours prior to running the assay. The medium is removed before the addition of 50 μl fluorescence dye solution (HBSS containing 20 mM Hepes, 10 μM Fluo-3-AM, 0.05% pluronic acid F127; supplemented with 2.5 mM probenecid for CHO cell assays). The cells are incubated with the dye for 75 minutes before replacing with assay buffer (20 mM Hepes in Hanks balanced salt solution (Gibco); supplemented with 2.5 mM probenecid for CHO cells). The plate is transferred to the FLIPR machine (Molecular Devices) for fluorescence recordings. The cells are periodically excited by 488 nm light, and the emitted fluorescent light passed through a 510-570 nm filter and then detected by a cooled CCD camera. Automated multiple compound additions are timed by computer program. Cells are pre-incubated with increasing concentration of compounds. After 2 minutes, a range of acetylcholine concentrations is added to each concentration of compound. […]

In general, Kd refers to the equilibrium constant for the complex coming apart. Turning to `COc1nc2sc(C(=O)NC3CC3)c(N)c2c(C)c1Cl` [Example 1, 3-Amino-5-chloro-6-methoxy-4-methyl-thieno[2,3-b]pyridine-2-carboxylic acid cyclopropylamide], at hM4 receptors, the equilibrium dissociation constant (Kd) is 0.2 ± 0.042 µM. The “potentiation of acetylcholine versus carbachol” value on hM4 receptors (FLIPR, both non-selective full muscarinic agonists, receptor subtype not given) was “potentiated in an equivalent fashion”. In addition, the “cooperatively factor for hM4 receptors” value on hM4 receptors (estimated, FLIPR, ACh curves, AV12 Gα15 hM4, duplicates, at least three experiments) is given as 34.5±3.5. Besides, the “allosteric effect on ACh response” value on hM1 receptors is listed as “No significant allosteric effect”; on hM3 receptors, “No significant allosteric effect”; on hM5 receptors, “No significant allosteric effect”; on hM2 receptors, “modest allosteric effect”.

Regarding `Cc1c(Cl)c(OCCN2CCOCC2)nc2sc(C(=O)NC3CC3)c(N)c12` [Example 6, 3-Amino-5-chloro-4-methyl-6-(2-morpholin-4-yl-ethoxy)-thieno[2,3-b]pyridine-2-carboxylic acid cyclopropylamide], the “Percent Avoidance Response (Mean ± S.E.M.), Oxo + Test Compound 10 mg/kg” value in the assay with Male Fisher-344 rats (test compound 10 mg/kg orally 2 hours prior, Oxo 0.03 mg/kg s.c. 30 minutes prior) is 90 ± 3.4%.

With `Cc1c(Cl)c(OCC(=O)N2CCN(C)CC2)nc2sc(C(=O)NC3CC3)c(N)c12` [Example 10], the “Percent Avoidance Response (Mean ± S.E.M.), Oxo + Test Compound 10 mg/kg” value in the assay on Male Fisher-344 rats (rat, in vivo) is given as 85 ± 5.3%.

For the molecule `Cc1c(Cl)c(OCCN2CCOCC2)nc2sc(C(=O)NC3CC3)c(N)c12.Cl` [Example 28, 3-Amino-5-chloro-4-methyl-6-(2-morpholin-4-yl-ethoxy)-thieno[2,3-b]pyridine-2-carboxylic acid cyclopropylamide hydrochloride], the “Percent Avoidance Response (Mean ± S.E.M.), Oxo + Test Compound 30 mg/kg” value with Male Fisher-344 rats (test compound 30 mg/kg orally 2 hours prior, Oxo 0.03 mg/kg s.c. 30 minutes prior) is reported as 84 ± 6.3%.

In the case of oxotremorine sesquifumarate, the “Percent Avoidance Response (Mean ± S.E.M.), Oxo alone” value in the assay with Male Fisher-344 rats (Oxo 0.03 mg/kg subcutaneously 30 minutes prior to testing, first Oxo alone group) was 93 ± 1.8% and 93 ± 1.2% and 89 ± 3.8% and 92 ± 1.5%. Also, the “Percent Avoidance Response (Mean ± S.E.M.), Oxo alone (retest)” value in the assay on Male Fisher-344 rats (retest of Oxo alone, 0.03 mg/kg subcutaneously 30 minutes prior to testing, 0.03 mg/kg) is 91 ± 0.9% and 90 ± 2.5% and 89 ± 3.2% and 91 ± 2.0%.
